One compound from publication PMC11709109, “Identification of AS1842856 as a novel small‐molecule GSK3α/β inhibitor against Tauopathy by accelerating GSK3α/β exocytosis” (Aging Cell, 2024) can be followed below.

Test [1] concerns the target T1, GSK3β (Homo sapiens, UniProt P49841).
T1 construct: gene GSK3B; recombinant, His tag (Sino Biological 10044-H07B)
As to the kind of experiment: bio-layer interferometry (Octet K2, Ni-NTA); supported by CETSA in N2a lysate. It counts as binding. A general note: In BLI a coated tip is dipped into the sample, and binding shifts an interference pattern.

Test [2] addresses T2, GSK3α (Homo sapiens, UniProt P49840).
T2 construct: gene GSK3A; recombinant, His tag (CLOUD-CLONE RPA360Hu01)
The test is described as above. It counts as binding.

T2 sequence (P49840 2-483): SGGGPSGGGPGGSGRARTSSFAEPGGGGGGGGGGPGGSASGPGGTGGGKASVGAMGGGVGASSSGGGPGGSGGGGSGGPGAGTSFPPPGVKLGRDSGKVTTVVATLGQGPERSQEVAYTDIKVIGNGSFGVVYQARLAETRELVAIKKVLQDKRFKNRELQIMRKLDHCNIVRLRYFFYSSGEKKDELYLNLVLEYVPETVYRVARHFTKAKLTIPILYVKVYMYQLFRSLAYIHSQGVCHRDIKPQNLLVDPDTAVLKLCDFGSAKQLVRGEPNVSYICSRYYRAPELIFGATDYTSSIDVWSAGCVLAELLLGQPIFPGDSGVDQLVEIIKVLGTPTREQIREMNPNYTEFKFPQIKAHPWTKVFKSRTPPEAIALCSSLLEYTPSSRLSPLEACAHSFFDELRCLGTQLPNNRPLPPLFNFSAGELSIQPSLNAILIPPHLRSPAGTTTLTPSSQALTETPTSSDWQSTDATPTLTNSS

Regarding `CCn1cc(C(=O)O)c(=O)c2c(N)c(F)c(NC3CCCCC3)cc21` [AS, AS1842856], the values for the Kd in test [1] and in test [2] were 40.9 µM and 15.8 µM, respectively.

A word on the Kd: it is a measure of binding affinity in units of concentration. Read a high Kd as a looser complex.
